Reference: publication PMC11198769, “Enhancement of transcription efficiency by TAR-Tat system increases the functional expression of human olfactory receptors” (PLOS ONE, 2024)

Assays:
Experiment in all cases: Comprehensive analysis (screening) of hORs against n-hexanal
Assay type in all cases: cell-based
[1] = target: T1, OR5K1 (Homo sapiens, UniProt Q8NHB7); settings: OR5K1, 500 μM n-hexanal, with the TAR-Tat system (hOR/pHEK), n = 1
T1 construct: Lucy tag (N); FLAG (N); Rho tag (N); expressed in transfected cells; host or cells: Flp-In T-REx-293 cells stably expressing RTP1S, Gαolf and Ric8-b
T1 sequence (Q8NHB7 1-308): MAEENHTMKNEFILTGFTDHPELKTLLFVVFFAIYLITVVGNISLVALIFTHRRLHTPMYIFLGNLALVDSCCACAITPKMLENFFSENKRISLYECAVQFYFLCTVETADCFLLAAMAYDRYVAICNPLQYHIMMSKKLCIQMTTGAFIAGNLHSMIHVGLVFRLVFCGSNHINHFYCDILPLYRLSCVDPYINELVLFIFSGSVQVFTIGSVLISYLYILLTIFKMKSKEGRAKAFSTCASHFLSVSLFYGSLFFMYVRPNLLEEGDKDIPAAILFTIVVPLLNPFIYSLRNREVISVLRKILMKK
Description: (§1) Transfection was performed as described in the “hOR assay,” but 12.5 ng of 379 hOR plasmids (hOR/pBApo and hOR/pHEK) was transfected with the 12.5 ng pGlosensor^TM-22F cAMP biosensor plasmid (Promega) in 384 plates per well. After loading the GloSensor cAMP substrate and preincubation, the assay buffer was added (30 μL/well). After 10 min of equilibration, luminescence was measured (L0). Then, 50 mM n-hexanal, which was diluted with 10% DMSO/assay buffer, was added (4.7 μL/well). After 9 min, luminescence was measured (L9min). All the L9min values were subtracted by the L0 value (ΔL).

[2] = target: T2, OR10H3 (Homo sapiens, UniProt O60404); settings: OR10H3, 500 μM n-hexanal, with the TAR-Tat system (hOR/pHEK), n = 1
T2 construct: Lucy tag (N); expressed in transfected cells; host or cells: Flp-In T-REx-293 cells stably expressing RTP1S, Gαolf and Ric8-b
T2 sequence (O60404 1-316): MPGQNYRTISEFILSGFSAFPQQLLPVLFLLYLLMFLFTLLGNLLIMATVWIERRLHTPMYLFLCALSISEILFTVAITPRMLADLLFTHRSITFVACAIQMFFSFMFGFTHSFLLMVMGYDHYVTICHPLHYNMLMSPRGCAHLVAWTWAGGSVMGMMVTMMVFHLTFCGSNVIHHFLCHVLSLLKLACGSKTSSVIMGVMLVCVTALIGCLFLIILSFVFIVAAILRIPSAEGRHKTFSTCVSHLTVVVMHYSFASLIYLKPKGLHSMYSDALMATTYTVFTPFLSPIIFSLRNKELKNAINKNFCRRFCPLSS
Description: as §1

[3] = target: T3, OR2Z1 (Homo sapiens, UniProt Q8NG97); settings: OR2Z1, 500 μM n-hexanal, with the TAR-Tat system (hOR/pHEK), n = 1
T3 construct: Lucy tag (N); FLAG (N); Rho tag (N); expressed in transfected cells; host or cells: Flp-In T-REx-293 cells stably expressing RTP1S, Gαolf and Ric8-b
T3 sequence (Q8NG97 1-314): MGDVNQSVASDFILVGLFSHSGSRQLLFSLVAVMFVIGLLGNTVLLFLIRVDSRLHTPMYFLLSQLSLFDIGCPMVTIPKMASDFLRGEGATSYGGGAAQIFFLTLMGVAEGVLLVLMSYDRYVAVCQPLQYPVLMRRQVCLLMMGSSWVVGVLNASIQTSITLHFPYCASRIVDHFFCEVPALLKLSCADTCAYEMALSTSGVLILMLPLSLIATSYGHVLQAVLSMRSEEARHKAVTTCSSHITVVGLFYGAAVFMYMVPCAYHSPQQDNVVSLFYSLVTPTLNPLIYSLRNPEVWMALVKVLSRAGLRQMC
Description: as §1

[4] = target: T4, OR2J3 (Homo sapiens, UniProt O76001); settings: OR2J3, 500 μM n-hexanal, n = 1
T4 construct: Lucy tag (N); FLAG (N); Rho tag (N); expressed in transfected cells; host or cells: Flp-In T-REx-293 cells stably expressing RTP1S, Gαolf and Ric8-b
T4 sequence (O76001 1-311): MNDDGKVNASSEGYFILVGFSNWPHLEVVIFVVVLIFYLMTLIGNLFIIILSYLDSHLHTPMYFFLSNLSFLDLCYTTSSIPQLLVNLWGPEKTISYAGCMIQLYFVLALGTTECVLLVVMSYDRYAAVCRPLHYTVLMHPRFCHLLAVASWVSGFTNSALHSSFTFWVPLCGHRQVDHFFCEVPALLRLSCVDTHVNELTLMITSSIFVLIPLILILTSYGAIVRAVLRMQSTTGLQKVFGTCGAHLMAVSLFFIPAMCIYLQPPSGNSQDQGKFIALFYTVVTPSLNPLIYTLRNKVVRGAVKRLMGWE
Description: as §1

[5] = target: T5, OR8B3 (Homo sapiens, UniProt Q8NGG8); settings: OR8B3, 500 μM n-hexanal, with the TAR-Tat system (hOR/pHEK), n = 1
T5 construct: Lucy tag (N); FLAG (N); Rho tag (N); expressed in transfected cells; host or cells: Flp-In T-REx-293 cells stably expressing RTP1S, Gαolf and Ric8-b
T5 sequence (Q8NGG8 1-313): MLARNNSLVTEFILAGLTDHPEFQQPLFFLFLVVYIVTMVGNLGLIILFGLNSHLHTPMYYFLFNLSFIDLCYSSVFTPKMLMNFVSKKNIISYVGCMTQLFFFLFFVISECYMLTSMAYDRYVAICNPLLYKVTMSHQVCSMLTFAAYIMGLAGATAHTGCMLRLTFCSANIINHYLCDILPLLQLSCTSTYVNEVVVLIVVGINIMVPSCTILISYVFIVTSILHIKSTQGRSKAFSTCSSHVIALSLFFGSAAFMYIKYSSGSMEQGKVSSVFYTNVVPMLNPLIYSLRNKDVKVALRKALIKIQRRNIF
Description: as §1

[6] = target: T6, OR8B4 (Homo sapiens, UniProt Q96RC9); settings: OR8B4, 500 μM n-hexanal, with the TAR-Tat system (hOR/pHEK), n = 1
T6 construct: Lucy tag (N); FLAG (N); Rho tag (N); expressed in transfected cells; host or cells: Flp-In T-REx-293 cells stably expressing RTP1S, Gαolf and Ric8-b
T6 sequence (Q96RC9 1-309): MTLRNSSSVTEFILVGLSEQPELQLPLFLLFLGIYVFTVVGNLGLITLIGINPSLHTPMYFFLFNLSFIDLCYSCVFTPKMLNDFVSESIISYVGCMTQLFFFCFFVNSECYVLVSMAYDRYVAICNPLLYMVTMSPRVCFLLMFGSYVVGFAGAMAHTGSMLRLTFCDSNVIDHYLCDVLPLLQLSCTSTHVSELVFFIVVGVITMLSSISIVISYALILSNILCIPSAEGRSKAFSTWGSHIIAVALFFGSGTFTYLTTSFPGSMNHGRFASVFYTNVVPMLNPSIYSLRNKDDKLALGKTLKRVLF
Description: as §1

response value (ΔL) [1]: > 500
response value (ΔL) [2]: > 500
response value (ΔL) [3]: > 500
response value (ΔL) ([4]; with the TAR-Tat system (hOR/pHEK)): 1580
response value (ΔL) ([4]; without the TAR-Tat system (control plasmid)): 549
response value (ΔL) [5]: > 500
response value (ΔL) [6]: > 500
SMILES: CCCCCC=O [n-hexanal]
